Patent US20230066946A1, “1,5-DIPHENYLPYRAZOLYL-3-OXYALKYL ACIDS AND 1-PHENYL-5-THIENYLPYRAZOLYL-3-OXYALKYL ACIDS AND THE USE THEREOF FOR CONTROL OF UNWANTED PLANT GROWTH” (Bayer Aktiengesellschaft, priority 2019, published 2023)

Experiments:
STEME [1] = assay: Post-emergence herbicidal action against STEME; type: in vivo, Stellaria media; conditions: visual rating about 3 weeks after treatment
Summary of the method: (§1)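 Rates of 1280 or 320 g/ha were sprayed onto green parts of one-leaf-stage plants grown in sandy loam pots, with 0.5% additive and 600 litres per hectare water. After about 3 weeks under optimum greenhouse conditions, activity is rated visually: 100% = dead plants, 0% = as control.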

MATIN = assay: Post-emergence herbicidal action against MATIN; type: in vivo, Matricaria inodora; conditions: visual rating about 3 weeks after treatment
Summary of the method: as §1

ECHCG [2] = assay: Pre-emergence herbicidal action against ECHCG; type: in vivo, Echinochloa crus-galli; conditions: scored visually after about 3 weeks vs untreated controls, 100% = plants have died, 0% = like control plants
Excerpt: (§2) Seeds of mono- and dicotyledonous weed plants are placed in plastic pots in sandy loam soil (doubly sown with one species each of mono- or dicotyledonous weed plants per pot) and covered with soil. The compounds of the invention, formulated in the form of wettable powders (WP) or as emulsion concentrates (EC), are then applied onto the surface of the covering soil as aqueous suspension or emulsion with addition of 0.5% additive at a water application rate equivalent to 600 litres per hectare. After the treatment, the pots are placed in a greenhouse and kept under good growth conditions for the trial plants. After about 3 weeks, the effect of the preparations is scored visually in comparison with untreated controls as percentages. For example, 100% activity=the plants have died, 0% activity=like control plants. [table] Tables 4.1-4.15 below show the effects of selected compounds of the general formula (I) according to Tables 1 to 3 on various harmful plants at an application rate corresponding to 1280 or 320 g/ha, which have been obtained by the aforementioned experimental method.

SETVI [3] = assay: Post-emergence herbicidal action against SETVI; type: in vivo, Setaria viridis; conditions: 1280 g/ha, post-emergence at one-leaf stage, rated visually after about 3 weeks vs untreated controls
Experimental: (§3) [table] Seeds of mono- and dicotyledonous weed plants are placed in plastic pots in sandy loam soil (twin sowing with one species each of mono- or dicotyledonous weed plants per pot), covered with soil and cultivated in a greenhouse under controlled growth conditions. 2 to 3 weeks after sowing, the test plants are treated at the one-leaf stage. The compounds of the invention, formulated in the form of wettable powders (WP) or as emulsion concentrates (EC), are applied to the green parts of the plants as aqueous suspension or emulsion with addition of 0.5% additive at a water application rate equivalent to 600 litres per hectare. After the test plants have been kept in the greenhouse under optimum growth conditions for about 3 weeks, the activity of the preparations is rated visually in comparison to untreated controls. For example, 100% activity=the plants have died, 0% activity=like control plants. Tables 5.1-5.16 below show the effects of selected compounds of the general formula (I) according to Tables 1 to 3 on various harmful plants at an application rate corresponding to 1280 or 320 g/ha, which have been obtained by the aforementioned experimental method.

AMARE [4] = assay: Pre-emergence herbicidal action against AMARE; type: in vivo, Amaranthus retroflexus; conditions: scored visually after about 3 weeks vs untreated controls; for Pre-emergence action against AMARE in %: 1280 g/ha; for Pre-emergence action at 320 g/ha against AMARE in %: 100% = plants have died, 0% = like control plants
Summary of the method: (§4)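 Pre-emergence, sandy loam, pots doubly sown. WP/EC formulations + 0.5% additive, 600 L/ha water, sprayed on soil surface; 1280 or 320 g/ha. Greenhouse ~3 wk; visual % effect vs untreated.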

STEME [5] = assay: Pre-emergence herbicidal action against STEME; type: in vivo, Stellaria media; conditions: scored visually after about 3 weeks vs untreated controls
Summary of the method: as §4

ECHCG [6] = assay: Post-emergence herbicidal action against ECHCG; type: in vivo, Echinochloa crus-galli; conditions: 1280 g/ha, post-emergence at one-leaf stage, rated visually after about 3 weeks vs untreated controls
Experimental: as §3

AMARE [7] = assay: Post-emergence herbicidal action against AMARE; type: in vivo, Amaranthus retroflexus; conditions: visual rating about 3 weeks after treatment
Summary of the method: as §1

SETVI [8] = assay: Pre-emergence herbicidal action against SETVI; type: in vivo, Setaria viridis; conditions: 1280 g/ha, scored visually after about 3 weeks vs untreated controls
Summary of the method: as §4

PHBPU = assay: Post-emergence herbicidal action against PHBPU; type: in vivo, Pharbitis purpurea; conditions: 320 g/ha, visual rating about 3 weeks after treatment
Experimental: as §3

POLCO = assay: Post-emergence herbicidal action against POLCO; type: in vivo, Polygonum convolvulus; conditions: 320 g/ha, visual rating about 3 weeks after treatment
Experimental: as §3

VIOTR = assay: Post-emergence herbicidal action against VIOTR; type: in vivo, Viola tricolor; conditions: 320 g/ha, visual rating about 3 weeks after treatment
Experimental: as §3

VERPE [9] = assay: Pre-emergence herbicidal action against VERPE; type: in vivo, Veronica persica; conditions: 320 g/ha, scored visually after about 3 weeks vs untreated controls
Excerpt: as §2

VERPE [10] = assay: Post-emergence herbicidal action against VERPE; type: in vivo, Veronica persica; conditions: 320 g/ha, visual rating about 3 weeks after treatment
Experimental: as §3

| SMILES | Post-emergence action against STEME in % (STEME [1]; 1280 g/ha) [%] | Post-emergence action against MATIN in % (MATIN; 1280 g/ha) [%] | Pre-emergence action at 1280 g/ha against ECHCG in % (ECHCG [2]) [%] | Post-emergence action against SETVI in % (SETVI [3]) [%] | Pre-emergence action against AMARE in % (AMARE [4]) [%] | Pre-emergence action against STEME in % (STEME [5]; 1280 g/ha) [%] | Post-emergence action against ECHCG in % (ECHCG [6]) [%] | Post-emergence action against AMARE in % (AMARE [7]; 1280 g/ha) [%] | Pre-emergence action against SETVI in % (SETVI [8]) [%] | Post-emergence action against PHBPU in % (PHBPU) [%] | Post-emergence action against POLCO in % (POLCO) [%] | Post-emergence action against VIOTR in % (VIOTR) [%] | Post-emergence action against AMARE in % (AMARE [7]; 320 g/ha) [%] | Post-emergence action against STEME in % (STEME [1]; 320 g/ha) [%] | Pre-emergence action against VERPE in % (VERPE [9]) [%] | Post-emergence action against VERPE in % (VERPE [10]) [%] | Post-emergence action against MATIN in % (MATIN; 320 g/ha) [%] | Pre-emergence action at 320 g/ha against AMARE in % (AMARE [4]) [%] | Pre-emergence action against STEME in % (STEME [5]; 320 g/ha) [%] |
| --- | --- | --- | --- | --- | --- | --- | --- | --- | --- | --- | --- | --- | --- | --- | --- | --- | --- | --- | --- |
| CCOC(=O)COc1nn(-c2ccc(F)cc2F)c(-c2cccc(F)c2)c1Cl [I-098] | 90 | 90 | 100 | 90 | 100 | 100 | 100 | 100 | 90 | – | – | – | – | – | – | – | – | – | – |
| COC(=O)COc1nn(-c2ccccc2)c(-c2ccc(Cl)cc2)c1Cl [I-004] | – | – | – | – | 90 | – | – | 80 | – | 80 | 80 | – | – | – | – | – | – | – | – |
| COC(=O)C(C)Oc1nn(-c2ccccc2)c(-c2cccc(F)c2)c1Cl (stereo not drawn) [I-164] | 100 | 100 | 100 | 100 | 100 | 100 | 90 | 100 | 100 | – | – | – | – | – | – | – | – | – | – |
| COC(=O)COc1nn(-c2cccc(F)c2)c(-c2ccc(Cl)cc2)c1Cl [I-005] | – | – | – | – | – | – | – | 80 | – | 80 | – | 80 | 80 | – | – | – | – | – | – |
| COC(=O)COc1nn(-c2cccc(F)c2)c(-c2cccc(F)c2)c1C#N [I-047] | – | – | – | – | – | – | – | – | – | 80 | – | 90 | 80 | 80 | 90 | 80 | 80 | 90 | – |
| COC(=O)C(C)Oc1nn(-c2c(F)cccc2F)c(-c2ccc(F)c(F)c2)c1Br (stereo not drawn) [I-169] | 100 | 90 | 100 | 90 | 100 | 100 | 90 | 100 | 100 | – | – | – | – | – | – | – | – | – | – |
| COC(=O)COc1nn(-c2cccc(F)c2)c(-c2cccc(Cl)c2)c1C#N [I-038] | – | 80 | – | – | – | – | – | 90 | – | 80 | – | – | – | – | – | 80 | – | – | – |
| COC(=O)C(C)Oc1nn(-c2ccccc2)c(-c2cc(F)cc(F)c2)c1Cl (stereo not drawn) [I-165, Methyl 2-{[4-chloro-5-(3,5-difluorophenyl)-1-phenyl-1H-pyrazol-3-yl]oxy}propanoate] | 100 | 100 | – | 90 | 100 | 100 | – | 100 | 100 | 80 | 80 | 80 | – | – | 100 | 80 | – | 90 | – |
| CCOC(=O)COc1nn(-c2ccc(F)cc2F)c(-c2ccccc2)c1Cl [I-100] | 90 | 90 | 100 | – | 100 | 100 | 90 | 90 | 100 | 90 | 90 | 100 | 80 | 80 | 100 | 90 | 80 | 100 | 90 |
| C=CCNC(=O)COc1nn(-c2ccccc2)c(-c2ccc(F)cc2)c1Br [III-004] | – | – | 100 | – | 100 | 100 | – | 100 | 100 | 80 | 80 | – | 80 | – | 100 | – | – | 80 | – |
| CCOC(=O)COc1nn(-c2cc(F)c(F)cc2F)c(-c2cccc(F)c2)c1Cl [I-097] | 100 | 100 | 100 | 90 | 100 | 100 | 100 | – | 100 | – | – | – | – | – | – | – | – | – | – |
| COC(=O)COc1nn(-c2ccc(F)cc2)c(-c2ccccc2)c1C#N [I-011] | 80 | 90 | 80 | – | 90 | – | – | – | – | – | 80 | – | – | – | – | 80 | 90 | – | – |
| COC(=O)COc1nn(-c2ccc(Cl)cc2)c(-c2cccc(F)c2)c1Cl [I-029] | – | – | – | – | – | – | – | – | – | 80 | – | – | – | – | – | 80 | – | – | – |
